Test results reported in PMC11997881, “Comprehensive Characterization of Bruton’s Tyrosine Kinase Inhibitor Specificity, Potency, and Biological Effects: Insights into Covalent and Noncovalent Mechanistic Signatures” (ACS Pharmacology & Translational Science, 2025).

Assays:
[1] = biological target: BLK (Homo sapiens, UniProt P51451); assay: scanMAX binding POC, BLK; conditions: 1 μM
[2] = biological target: T1, JAK3 (JH1 catalytic domain) (Homo sapiens, UniProt P52333); assay: scanMAX binding POC, JAK3; conditions: 1 μM
T1 construct: The JAK3 POC is for its JH1 catalytic domain

[3] = tested on: patients with CLL; design: method as in NCT02477696; conditions: phase III, P = 0.02, ref NCT02477696; cited from earlier work
[4] = biological target: JNK3 (MAPK10) (Homo sapiens, UniProt P53779); assay: scanMAX binding POC, JNK3; conditions: 1 μM
[5] = biological target: JNK1 (MAPK8) (Homo sapiens, UniProt P45983); assay: scanMAX binding POC, JNK1; conditions: 1 μM
Chain of JNK1 (MAPK8) (P45983 whole entry): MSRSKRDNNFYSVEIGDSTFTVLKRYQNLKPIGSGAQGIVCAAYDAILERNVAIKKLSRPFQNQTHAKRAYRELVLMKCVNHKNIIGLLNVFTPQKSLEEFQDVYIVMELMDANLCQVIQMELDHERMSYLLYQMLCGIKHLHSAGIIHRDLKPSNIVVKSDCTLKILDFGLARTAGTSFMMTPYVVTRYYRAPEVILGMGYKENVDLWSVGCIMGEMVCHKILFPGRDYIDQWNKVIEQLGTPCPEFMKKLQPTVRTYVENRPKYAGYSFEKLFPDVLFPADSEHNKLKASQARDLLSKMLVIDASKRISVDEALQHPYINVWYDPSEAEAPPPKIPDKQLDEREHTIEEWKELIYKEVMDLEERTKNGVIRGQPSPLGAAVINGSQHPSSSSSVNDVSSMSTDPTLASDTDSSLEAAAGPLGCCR

[6] = tested on: BTK; conditions: cited from earlier work
[7] = biological target: BTK C481S; conditions: average of literature values; read-out: average published Kd for BTK C481S; cited from earlier work
[8] = biological target: ERBB2 (Homo sapiens, UniProt P04626); assay: scanMAX binding POC, ERBB2; conditions: 1 μM
Chain of ERBB2 (P04626 23-1255): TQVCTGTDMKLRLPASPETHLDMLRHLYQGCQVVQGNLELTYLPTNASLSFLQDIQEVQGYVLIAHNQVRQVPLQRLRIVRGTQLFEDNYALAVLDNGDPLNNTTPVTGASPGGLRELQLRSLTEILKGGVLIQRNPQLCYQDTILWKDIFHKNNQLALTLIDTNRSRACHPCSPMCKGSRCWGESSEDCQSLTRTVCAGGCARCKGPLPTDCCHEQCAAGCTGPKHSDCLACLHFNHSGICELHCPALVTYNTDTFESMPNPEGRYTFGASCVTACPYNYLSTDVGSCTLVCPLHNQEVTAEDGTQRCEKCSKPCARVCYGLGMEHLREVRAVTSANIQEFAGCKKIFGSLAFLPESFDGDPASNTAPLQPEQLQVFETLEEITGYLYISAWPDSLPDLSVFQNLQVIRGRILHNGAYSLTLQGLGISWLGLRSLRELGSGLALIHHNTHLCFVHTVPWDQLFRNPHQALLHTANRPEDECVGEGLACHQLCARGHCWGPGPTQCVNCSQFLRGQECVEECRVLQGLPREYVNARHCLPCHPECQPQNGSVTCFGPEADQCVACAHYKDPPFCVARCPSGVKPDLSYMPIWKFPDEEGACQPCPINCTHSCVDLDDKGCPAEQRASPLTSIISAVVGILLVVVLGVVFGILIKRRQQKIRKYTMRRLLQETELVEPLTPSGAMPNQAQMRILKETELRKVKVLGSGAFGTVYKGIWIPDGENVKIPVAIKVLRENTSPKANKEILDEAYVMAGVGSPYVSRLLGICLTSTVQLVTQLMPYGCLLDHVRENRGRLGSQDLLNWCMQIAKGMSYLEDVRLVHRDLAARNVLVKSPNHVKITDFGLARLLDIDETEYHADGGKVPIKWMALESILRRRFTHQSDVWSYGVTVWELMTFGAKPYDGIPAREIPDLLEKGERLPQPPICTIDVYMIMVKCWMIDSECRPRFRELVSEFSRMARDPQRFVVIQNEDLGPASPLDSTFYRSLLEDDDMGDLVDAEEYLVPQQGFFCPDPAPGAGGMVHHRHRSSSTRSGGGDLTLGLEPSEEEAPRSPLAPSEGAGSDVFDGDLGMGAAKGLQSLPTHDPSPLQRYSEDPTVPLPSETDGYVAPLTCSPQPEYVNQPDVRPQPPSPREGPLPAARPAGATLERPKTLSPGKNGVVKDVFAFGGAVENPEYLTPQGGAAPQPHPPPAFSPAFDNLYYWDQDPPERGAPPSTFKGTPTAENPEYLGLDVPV

[9] = biological target: JNK2 (MAPK9) (Homo sapiens, UniProt P45984); assay: scanMAX binding POC, JNK2; conditions: 1 μM
Chain of JNK2 (MAPK9) (P45984 whole entry): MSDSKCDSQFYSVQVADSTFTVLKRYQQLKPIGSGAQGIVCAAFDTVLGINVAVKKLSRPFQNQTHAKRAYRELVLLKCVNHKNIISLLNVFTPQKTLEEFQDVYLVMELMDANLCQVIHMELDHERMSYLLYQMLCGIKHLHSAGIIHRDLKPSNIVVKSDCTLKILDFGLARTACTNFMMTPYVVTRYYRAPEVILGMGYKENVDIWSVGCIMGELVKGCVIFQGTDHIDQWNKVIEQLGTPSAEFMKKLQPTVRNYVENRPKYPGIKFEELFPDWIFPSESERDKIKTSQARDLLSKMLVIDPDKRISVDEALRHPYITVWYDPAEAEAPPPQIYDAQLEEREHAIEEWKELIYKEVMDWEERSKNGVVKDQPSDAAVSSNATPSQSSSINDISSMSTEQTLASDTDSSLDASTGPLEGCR

[10] = biological target: ERBB4 (Homo sapiens, UniProt Q15303); assay: scanMAX binding POC, ERBB4; conditions: 1 μM
Chain of ERBB4 (Q15303 26-1308): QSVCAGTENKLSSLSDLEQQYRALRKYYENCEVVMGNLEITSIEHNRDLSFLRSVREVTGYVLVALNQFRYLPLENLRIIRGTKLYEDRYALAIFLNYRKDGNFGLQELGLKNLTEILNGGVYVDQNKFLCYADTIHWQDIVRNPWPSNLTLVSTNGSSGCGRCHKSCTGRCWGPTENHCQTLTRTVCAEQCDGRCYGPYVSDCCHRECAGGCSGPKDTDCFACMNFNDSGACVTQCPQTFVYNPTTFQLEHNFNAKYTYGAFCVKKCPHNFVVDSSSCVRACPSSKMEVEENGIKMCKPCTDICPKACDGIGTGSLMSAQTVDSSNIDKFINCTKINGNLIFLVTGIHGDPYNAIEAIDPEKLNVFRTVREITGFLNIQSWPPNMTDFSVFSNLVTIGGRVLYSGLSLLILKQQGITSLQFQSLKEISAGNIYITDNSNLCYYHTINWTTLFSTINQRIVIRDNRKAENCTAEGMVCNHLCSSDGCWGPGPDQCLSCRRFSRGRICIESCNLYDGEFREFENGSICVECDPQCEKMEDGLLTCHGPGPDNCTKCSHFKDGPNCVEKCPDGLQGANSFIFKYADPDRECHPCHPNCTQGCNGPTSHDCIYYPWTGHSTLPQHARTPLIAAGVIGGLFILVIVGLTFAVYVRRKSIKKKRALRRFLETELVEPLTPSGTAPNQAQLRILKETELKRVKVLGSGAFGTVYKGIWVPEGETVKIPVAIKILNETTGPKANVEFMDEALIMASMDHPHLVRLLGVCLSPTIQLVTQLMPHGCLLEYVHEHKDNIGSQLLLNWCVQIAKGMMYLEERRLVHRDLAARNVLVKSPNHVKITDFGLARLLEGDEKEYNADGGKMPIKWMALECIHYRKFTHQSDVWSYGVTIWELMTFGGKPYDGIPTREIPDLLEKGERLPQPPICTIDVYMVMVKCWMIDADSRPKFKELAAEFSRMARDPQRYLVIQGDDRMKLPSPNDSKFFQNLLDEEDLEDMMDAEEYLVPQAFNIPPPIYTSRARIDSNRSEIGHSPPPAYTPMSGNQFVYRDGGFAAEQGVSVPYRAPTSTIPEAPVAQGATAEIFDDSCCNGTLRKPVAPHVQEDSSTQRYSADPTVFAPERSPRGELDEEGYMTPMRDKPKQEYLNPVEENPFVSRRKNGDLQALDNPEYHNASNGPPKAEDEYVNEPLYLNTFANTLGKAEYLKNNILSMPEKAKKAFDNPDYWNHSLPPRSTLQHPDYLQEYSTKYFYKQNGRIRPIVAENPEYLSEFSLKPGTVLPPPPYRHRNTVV

[11] = biological target: T2, ITK (Homo sapiens, UniProt Q08881); assay: scanMAX binding POC, ITK; conditions: 1 μM
T2 sequence (Q08881 1-620): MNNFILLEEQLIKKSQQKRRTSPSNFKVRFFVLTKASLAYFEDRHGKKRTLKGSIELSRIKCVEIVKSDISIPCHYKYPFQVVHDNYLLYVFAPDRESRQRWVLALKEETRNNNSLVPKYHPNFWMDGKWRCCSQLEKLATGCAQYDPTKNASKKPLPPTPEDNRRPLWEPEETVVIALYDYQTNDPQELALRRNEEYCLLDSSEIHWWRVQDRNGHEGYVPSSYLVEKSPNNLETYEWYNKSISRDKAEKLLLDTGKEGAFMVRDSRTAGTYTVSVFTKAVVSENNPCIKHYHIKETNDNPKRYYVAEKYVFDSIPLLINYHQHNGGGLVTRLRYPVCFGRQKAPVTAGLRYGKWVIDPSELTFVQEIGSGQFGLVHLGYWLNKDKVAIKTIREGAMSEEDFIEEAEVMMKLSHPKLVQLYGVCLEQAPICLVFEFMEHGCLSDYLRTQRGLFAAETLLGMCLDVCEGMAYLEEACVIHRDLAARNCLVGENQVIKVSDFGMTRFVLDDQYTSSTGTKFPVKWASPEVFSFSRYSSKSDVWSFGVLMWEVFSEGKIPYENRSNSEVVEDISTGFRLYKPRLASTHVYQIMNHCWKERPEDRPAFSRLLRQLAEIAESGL
Excerpt: (§1) Comprehensive Characterization of Bruton’s Tyrosine Kinase Inhibitor Specificity, Potency, and
(§2) Biological Effects: Insights into Covalent and Non-Covalent Mechanistic Signatures
(§3) Antonia C. Darragh1, Andrew M. Hanna1, Justin H. Lipner2, Alastair J. King2, Nicole B. Servant1, Mirza Jahic1*
(§4) *To whom correspondence should be addressed: Mirza Jahic, e-mail address: Mirza.Jahic@discovery.eurofinsus.com
(§5) Supporting Table S1. Comparison of BTK inhibitor specificity to TEC family members. TEC family members are
(§6) Burton’s tyrosine kinase (BTK), tyrosine kinase expressed in hepatocellular carcinoma (TEC), bone marrow-
(§7) expressed kinase (BMX/ETK), and T cell-expressed kinase (TXK/RLK), and interleukin-2-inducible T cell kinase
(§8) A zero POC signifies that the compound

[12] = biological target: T3, MKK7 (Homo sapiens, UniProt O14733); assay: scanMAX binding POC, MKK7; conditions: 1 μM
T3 sequence (O14733 1-419): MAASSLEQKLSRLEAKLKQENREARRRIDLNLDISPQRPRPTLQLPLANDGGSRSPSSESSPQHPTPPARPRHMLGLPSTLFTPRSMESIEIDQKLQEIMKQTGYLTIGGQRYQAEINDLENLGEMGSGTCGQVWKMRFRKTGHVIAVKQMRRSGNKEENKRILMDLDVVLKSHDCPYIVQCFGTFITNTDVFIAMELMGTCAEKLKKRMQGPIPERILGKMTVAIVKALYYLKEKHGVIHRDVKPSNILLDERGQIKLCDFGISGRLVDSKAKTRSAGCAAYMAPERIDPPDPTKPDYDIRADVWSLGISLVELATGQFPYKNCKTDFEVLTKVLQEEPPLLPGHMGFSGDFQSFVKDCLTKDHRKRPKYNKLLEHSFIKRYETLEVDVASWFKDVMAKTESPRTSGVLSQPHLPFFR

[13] = biological target: T4, TXK (Homo sapiens, UniProt P42681); assay: scanMAX binding POC, TXK; conditions: 1 μM
T4 sequence (P42681 1-527): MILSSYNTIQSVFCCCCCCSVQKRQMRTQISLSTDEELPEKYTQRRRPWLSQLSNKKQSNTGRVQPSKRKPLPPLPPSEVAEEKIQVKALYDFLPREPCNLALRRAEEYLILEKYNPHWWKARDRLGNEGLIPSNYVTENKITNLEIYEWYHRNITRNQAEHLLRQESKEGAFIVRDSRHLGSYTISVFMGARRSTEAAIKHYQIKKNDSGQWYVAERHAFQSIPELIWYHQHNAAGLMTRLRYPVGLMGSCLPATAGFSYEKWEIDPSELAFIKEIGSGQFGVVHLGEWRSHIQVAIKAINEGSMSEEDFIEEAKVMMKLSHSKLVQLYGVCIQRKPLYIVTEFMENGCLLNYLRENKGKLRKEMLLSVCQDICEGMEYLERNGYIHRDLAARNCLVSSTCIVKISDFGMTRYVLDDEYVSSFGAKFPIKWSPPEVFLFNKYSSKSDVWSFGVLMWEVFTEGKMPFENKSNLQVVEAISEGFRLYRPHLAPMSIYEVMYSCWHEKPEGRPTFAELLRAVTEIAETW
Excerpt: as §1, §2, §3, §4, §5, §6, §7, §8

[14] = biological target: T5, BTK (Homo sapiens, UniProt Q06187); assay: scanMAX binding POC, BTK; conditions: 1 μM; zero POC = competition comparable to positive control
T5 construct: host or cells: transiently transfected HEK293 cells
Excerpt: as §1, §2, §3, §4, §5, §6, §7, §8

[15] = biological target: EGFR (Homo sapiens, UniProt P00533); assay: scanMAX binding POC, EGFR; conditions: 1 μM
Chain of EGFR (P00533 25-1210): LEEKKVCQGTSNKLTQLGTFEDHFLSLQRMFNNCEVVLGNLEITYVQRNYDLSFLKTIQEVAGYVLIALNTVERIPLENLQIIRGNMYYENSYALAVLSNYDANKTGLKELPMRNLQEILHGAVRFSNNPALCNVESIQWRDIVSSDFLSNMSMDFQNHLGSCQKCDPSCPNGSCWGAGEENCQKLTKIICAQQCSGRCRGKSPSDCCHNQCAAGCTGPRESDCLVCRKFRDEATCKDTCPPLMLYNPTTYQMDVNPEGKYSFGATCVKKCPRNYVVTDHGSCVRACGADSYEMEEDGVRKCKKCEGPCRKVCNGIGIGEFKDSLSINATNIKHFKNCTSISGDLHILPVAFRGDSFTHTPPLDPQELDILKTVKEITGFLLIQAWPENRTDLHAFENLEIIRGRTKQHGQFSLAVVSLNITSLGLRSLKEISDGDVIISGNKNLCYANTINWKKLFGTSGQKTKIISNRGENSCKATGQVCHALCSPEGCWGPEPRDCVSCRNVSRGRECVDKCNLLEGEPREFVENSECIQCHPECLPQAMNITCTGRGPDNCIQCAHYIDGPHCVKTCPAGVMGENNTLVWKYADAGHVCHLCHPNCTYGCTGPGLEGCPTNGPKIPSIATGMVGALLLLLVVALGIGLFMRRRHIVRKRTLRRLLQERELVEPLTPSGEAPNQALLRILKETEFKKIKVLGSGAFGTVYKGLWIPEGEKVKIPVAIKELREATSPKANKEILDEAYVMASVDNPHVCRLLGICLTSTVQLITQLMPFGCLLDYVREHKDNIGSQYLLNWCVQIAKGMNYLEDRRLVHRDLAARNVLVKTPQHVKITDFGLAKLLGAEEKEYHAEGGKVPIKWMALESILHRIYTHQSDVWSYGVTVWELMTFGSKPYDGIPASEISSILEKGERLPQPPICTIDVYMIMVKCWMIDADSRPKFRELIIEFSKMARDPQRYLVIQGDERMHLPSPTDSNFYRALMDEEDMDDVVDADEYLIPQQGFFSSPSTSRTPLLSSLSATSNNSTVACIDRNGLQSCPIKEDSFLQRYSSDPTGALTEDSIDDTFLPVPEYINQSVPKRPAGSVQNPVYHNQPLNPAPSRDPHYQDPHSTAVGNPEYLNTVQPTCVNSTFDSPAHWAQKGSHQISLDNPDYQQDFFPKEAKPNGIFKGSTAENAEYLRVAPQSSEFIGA

[16] = biological target: T6, TEC (Homo sapiens, UniProt P42680); assay: scanMAX binding POC, TEC; conditions: 1 μM
T6 sequence (P42680 1-631): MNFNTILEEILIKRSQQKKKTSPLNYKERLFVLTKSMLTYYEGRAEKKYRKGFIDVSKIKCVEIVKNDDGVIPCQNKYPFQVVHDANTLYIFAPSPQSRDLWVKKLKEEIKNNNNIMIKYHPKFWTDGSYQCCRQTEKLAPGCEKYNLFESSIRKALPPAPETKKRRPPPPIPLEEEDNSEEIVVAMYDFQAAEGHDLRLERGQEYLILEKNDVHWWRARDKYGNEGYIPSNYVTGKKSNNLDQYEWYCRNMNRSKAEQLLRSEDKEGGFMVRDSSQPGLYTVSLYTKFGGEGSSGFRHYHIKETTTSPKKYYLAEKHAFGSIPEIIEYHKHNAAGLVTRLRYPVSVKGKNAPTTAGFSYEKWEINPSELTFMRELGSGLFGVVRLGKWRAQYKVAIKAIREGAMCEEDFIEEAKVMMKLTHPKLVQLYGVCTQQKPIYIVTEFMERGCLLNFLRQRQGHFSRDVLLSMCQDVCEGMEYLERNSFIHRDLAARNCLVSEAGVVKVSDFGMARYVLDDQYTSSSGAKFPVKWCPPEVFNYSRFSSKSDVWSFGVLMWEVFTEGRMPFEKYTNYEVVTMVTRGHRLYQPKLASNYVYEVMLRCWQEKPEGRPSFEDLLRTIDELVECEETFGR
Excerpt: as §1, §2, §3, §4, §5, §6, §7, §8

[17] = biological target: ERBB3 (Homo sapiens, UniProt P21860); assay: scanMAX binding POC, ERBB3; conditions: 1 μM
[18] = tested on: BTK C481S; conditions: read-out: average published IC50 for BTK C481S; cited from earlier work
[19] = tested on: R/R PCNSL lymphoma patients; conditions: three-year follow-up; cited from earlier work
[20] = tested on: relapsed/refractory (R/R) CLL and small lymphocytic lymphoma (SLL); design: method as in NCT03734016; conditions: cited from earlier work

Chain of BLK (P51451 whole entry, the tested form may be a part): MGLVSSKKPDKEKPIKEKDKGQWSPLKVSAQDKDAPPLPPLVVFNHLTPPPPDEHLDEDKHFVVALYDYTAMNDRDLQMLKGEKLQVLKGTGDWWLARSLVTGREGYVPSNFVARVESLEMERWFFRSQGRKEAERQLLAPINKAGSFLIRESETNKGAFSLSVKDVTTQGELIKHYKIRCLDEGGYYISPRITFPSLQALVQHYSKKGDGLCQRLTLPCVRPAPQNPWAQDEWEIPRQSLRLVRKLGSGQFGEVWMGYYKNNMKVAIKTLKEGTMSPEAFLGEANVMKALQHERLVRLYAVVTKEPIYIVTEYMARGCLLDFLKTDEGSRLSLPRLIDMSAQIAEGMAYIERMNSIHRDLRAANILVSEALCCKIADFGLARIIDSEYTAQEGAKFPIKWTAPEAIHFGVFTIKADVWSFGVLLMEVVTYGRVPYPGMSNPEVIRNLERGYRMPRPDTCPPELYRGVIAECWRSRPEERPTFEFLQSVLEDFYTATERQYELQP

JAK3 binding POC [2] | JNK3 (MAPK10) POC [4] | ITK binding POC [11] | SMILES | BLK binding POC [1] | JNK1 (MAPK8) POC [5] | IC50 [6] [nM] | ERBB2 binding POC [8] | JNK2 (MAPK9) POC [9] | ERBB4 binding POC [10] | MKK7 binding POC [12] | TXK binding POC [13] | BTK binding POC [14] | EGFR binding POC [15] | TEC binding POC [16] | ERBB3 binding POC [17] | other results
80% of control | 97% of control | 100% of control | CC#CC(=O)N1CCC[C@H]1c1nc(-c2ccc(C(=O)Nc3ccccn3)cc2)c2c(N)nccn12 [Acalabrutinib] | 57% of control | 93% of control | […] | 4.7% of control | 58% of control | 6.9% of control | 75% of control | 47% of control | 0.2% of control | 61% of control | 14% of control | 64% of control | adverse cardiovascular events [3]: 9.4%; Kd [7]: 358 nM
– | – | – | C=CC(=O)N1CCC[C@@H](n2nc(-c3ccc(Oc4ccccc4)cc3)c3c(N)ncnc32)C1 [Ibrutinib] | 0.25% of control | 78% of control | […] | 0.1% of control | 78% of control | 0% of control | 0.15% of control | 0.5% of control | – | 0% of control | 5.9% of control | 0.15% of control | IC50 [18]: […]
20% of control | 93% of control | 74% of control | C=CC(=O)N1CCC([C@@H]2CCNc3c(C(N)=O)c(-c4ccc(Oc5ccccc5)cc4)nn32)CC1 [Zanubrutinib] | 0.3% of control | 99% of control | […] | 7.3% of control | 95% of control | 0.75% of control | 55% of control | 2.2% of control | – | 0% of control | 8.7% of control | 23% of control | overall response rate (ORR, partial and complete responses) ([20]; after 15 months, P < 0.001, ref NCT03734016): 78.3%; cardiovascular adverse events ([20]; two-sided P = 0.001, ref NCT03734016): 2.5%

SMILES | JAK3 binding POC [2] | JNK3 (MAPK10) POC [4] | ITK binding POC [11] | BLK binding POC [1] | JNK1 (MAPK8) POC [5] | IC50 [6] [nM] | ERBB2 binding POC [8] | JNK2 (MAPK9) POC [9] | ERBB4 binding POC [10] | MKK7 binding POC [12] | TXK binding POC [13] | BTK binding POC [14] | EGFR binding POC [15] | TEC binding POC [16] | ERBB3 binding POC [17] | other results
CC#CC(=O)N1CC[C@@H](n2c(=O)n(-c3ccc(Oc4ccccc4)cc3)c3c(N)ncnc32)C1 [Tirabrutinib] | – | […] | – | 14% of control | 99% of control | […] | 26% of control | 92% of control | 85% of control | 87% of control | 14% of control | 0.35% of control | 74% of control | 9.4% of control | 12% of control | overall response rate [19]: 63.6%
